According to paper PMC4076210, “Discovery of Novel AKT Inhibitors with Enhanced Anti-Tumor Effects in Combination with the MEK Inhibitor” (PLoS ONE, 2014):
Where two headings read alike, the source gives them in different places.

Experiments:
Test in all cases: Kinase panel
ACK1(h) = target: T1, ACK1(h) (Homo sapiens, UniProt Q07912); format: biochemical
T1 construct: purchased Millipore KinaseProfiler

CDK2/cyclinA(h) = target: T2, CDK2/cyclinA(h) (Homo sapiens, UniProt P24941); format: biochemical
T2 construct: purchased Millipore KinaseProfiler

CHK1(h) = target: T3, CHK1(h) (Homo sapiens, UniProt O14757); format: biochemical
T3 construct: purchased Millipore KinaseProfiler
T3 sequence (O14757 1-476): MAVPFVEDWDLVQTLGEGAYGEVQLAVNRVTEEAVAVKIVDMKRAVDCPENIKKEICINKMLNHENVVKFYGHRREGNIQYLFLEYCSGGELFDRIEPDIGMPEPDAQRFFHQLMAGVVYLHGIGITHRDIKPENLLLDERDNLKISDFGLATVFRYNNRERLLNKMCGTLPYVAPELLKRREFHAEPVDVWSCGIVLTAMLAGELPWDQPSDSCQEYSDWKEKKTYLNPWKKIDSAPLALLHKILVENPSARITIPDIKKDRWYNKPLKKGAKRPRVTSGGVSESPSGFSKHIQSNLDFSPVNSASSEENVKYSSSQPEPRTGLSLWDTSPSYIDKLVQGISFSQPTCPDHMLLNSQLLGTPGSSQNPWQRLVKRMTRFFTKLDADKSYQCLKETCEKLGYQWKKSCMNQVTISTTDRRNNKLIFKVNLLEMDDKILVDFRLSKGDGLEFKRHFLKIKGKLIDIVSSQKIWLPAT

CHK2(I157T)(h) = target: T4, CHK2(I157T)(h) (Homo sapiens, UniProt O96017, I157T); format: biochemical
T4 construct: purchased Millipore KinaseProfiler
T4 sequence (O96017 whole entry I157T): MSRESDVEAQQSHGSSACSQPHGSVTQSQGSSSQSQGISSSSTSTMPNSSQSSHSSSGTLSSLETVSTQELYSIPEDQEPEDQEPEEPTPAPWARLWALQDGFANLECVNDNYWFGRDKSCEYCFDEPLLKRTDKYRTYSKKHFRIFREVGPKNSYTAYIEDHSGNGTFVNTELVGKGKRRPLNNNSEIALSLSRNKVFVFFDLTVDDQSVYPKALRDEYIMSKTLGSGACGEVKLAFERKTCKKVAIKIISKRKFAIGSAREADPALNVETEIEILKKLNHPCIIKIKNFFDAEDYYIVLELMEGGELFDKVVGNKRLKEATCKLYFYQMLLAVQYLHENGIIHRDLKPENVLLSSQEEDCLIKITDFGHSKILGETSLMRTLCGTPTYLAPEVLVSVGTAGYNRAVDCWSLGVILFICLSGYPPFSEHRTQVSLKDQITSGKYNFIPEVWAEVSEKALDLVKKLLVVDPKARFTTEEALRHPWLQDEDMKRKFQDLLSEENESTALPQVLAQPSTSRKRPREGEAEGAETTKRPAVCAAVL

DAPK1(h) = target: T5, DAPK1(h) (Homo sapiens, UniProt P53355); format: biochemical
T5 construct: purchased Millipore KinaseProfiler
T5 sequence (P53355 whole entry): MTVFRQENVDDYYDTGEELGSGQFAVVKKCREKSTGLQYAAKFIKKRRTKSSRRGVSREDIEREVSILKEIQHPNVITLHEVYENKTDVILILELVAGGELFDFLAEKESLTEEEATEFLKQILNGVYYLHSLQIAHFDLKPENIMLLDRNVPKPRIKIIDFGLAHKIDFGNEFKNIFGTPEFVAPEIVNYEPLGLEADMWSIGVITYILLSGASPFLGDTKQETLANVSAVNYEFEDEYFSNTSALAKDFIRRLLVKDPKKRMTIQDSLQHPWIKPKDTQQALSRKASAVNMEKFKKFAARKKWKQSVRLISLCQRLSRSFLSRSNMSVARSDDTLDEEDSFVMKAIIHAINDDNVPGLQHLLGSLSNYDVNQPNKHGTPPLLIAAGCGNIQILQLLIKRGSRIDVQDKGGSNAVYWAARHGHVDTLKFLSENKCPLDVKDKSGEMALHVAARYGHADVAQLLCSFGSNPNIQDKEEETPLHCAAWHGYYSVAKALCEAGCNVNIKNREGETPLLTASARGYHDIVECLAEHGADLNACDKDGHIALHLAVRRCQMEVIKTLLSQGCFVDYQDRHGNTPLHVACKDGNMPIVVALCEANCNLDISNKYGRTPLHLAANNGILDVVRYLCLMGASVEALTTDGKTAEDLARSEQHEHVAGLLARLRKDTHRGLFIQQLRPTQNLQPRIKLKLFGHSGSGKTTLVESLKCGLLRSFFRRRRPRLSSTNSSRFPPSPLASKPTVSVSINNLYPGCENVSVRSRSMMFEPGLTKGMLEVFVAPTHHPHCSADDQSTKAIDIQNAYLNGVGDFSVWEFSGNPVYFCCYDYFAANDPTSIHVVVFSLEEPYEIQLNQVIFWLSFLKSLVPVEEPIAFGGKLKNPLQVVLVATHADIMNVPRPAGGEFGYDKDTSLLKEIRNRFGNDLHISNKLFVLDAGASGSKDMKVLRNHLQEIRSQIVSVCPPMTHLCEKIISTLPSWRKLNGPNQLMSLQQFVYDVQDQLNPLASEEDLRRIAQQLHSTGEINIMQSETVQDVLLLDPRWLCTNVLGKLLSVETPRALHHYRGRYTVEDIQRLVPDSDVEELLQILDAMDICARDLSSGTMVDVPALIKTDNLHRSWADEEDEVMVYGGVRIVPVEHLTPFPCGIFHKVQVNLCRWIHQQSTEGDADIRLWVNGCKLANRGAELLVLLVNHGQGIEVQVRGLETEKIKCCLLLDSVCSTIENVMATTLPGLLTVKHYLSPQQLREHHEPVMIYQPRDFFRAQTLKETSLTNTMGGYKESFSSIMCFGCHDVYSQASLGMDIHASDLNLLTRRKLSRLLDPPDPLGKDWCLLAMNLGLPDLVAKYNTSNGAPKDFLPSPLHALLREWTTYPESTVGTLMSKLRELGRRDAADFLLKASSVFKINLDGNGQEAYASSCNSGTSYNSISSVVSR

EphB2(h) = target: T6, EphB2(h) (Homo sapiens, UniProt P29323); format: biochemical
T6 construct: purchased Millipore KinaseProfiler
T6 sequence (P29323 19-1055): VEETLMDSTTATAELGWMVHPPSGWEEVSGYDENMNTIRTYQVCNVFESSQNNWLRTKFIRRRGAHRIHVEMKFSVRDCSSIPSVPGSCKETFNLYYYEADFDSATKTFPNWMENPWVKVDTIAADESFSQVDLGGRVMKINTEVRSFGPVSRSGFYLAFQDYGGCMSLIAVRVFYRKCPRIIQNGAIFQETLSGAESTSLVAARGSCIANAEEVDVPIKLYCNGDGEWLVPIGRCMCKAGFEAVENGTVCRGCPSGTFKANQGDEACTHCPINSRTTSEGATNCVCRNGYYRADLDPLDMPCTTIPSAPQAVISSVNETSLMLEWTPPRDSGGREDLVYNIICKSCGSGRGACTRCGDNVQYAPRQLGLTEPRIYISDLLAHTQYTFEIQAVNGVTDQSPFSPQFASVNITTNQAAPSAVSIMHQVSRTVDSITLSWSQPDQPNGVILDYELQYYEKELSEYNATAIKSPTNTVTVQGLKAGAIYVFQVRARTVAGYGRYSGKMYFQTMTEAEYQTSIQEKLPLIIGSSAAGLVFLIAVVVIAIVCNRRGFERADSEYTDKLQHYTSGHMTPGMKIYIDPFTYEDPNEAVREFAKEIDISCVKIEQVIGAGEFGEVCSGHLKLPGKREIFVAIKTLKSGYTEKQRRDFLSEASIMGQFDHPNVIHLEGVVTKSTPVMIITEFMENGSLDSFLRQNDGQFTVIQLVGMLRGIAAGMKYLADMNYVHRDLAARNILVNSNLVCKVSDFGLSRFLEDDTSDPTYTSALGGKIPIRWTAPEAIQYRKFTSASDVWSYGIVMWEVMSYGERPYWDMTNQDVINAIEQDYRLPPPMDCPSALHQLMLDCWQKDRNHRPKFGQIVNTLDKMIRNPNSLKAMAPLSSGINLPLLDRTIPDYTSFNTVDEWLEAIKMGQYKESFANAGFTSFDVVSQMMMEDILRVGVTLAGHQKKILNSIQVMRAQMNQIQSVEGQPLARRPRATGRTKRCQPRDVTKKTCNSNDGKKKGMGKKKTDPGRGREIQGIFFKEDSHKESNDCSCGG

Fgr(h) = target: T7, Fgr(h) (Homo sapiens, UniProt P09769); format: biochemical
T7 construct: purchased Millipore KinaseProfiler
T7 sequence (P09769 whole entry): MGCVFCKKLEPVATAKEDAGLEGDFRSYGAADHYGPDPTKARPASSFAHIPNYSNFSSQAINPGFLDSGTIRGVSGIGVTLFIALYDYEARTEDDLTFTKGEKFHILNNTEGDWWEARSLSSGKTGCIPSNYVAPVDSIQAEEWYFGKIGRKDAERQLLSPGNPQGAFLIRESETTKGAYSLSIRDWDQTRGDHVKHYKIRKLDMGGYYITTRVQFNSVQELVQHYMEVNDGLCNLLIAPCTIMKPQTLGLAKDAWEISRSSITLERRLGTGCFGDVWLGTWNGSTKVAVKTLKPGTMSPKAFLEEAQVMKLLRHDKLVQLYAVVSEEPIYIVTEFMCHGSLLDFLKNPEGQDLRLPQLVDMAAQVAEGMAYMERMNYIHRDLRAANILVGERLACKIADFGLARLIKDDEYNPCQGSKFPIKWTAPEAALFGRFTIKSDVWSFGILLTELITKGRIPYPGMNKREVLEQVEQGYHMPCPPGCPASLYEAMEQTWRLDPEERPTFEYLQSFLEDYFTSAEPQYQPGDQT

MLCK(h) = format: biochemical, human
PKCι(h) = target: T8, PKCι(h) (Homo sapiens, UniProt P41743); format: biochemical
T8 construct: purchased Millipore KinaseProfiler
T8 sequence (P41743 1-596): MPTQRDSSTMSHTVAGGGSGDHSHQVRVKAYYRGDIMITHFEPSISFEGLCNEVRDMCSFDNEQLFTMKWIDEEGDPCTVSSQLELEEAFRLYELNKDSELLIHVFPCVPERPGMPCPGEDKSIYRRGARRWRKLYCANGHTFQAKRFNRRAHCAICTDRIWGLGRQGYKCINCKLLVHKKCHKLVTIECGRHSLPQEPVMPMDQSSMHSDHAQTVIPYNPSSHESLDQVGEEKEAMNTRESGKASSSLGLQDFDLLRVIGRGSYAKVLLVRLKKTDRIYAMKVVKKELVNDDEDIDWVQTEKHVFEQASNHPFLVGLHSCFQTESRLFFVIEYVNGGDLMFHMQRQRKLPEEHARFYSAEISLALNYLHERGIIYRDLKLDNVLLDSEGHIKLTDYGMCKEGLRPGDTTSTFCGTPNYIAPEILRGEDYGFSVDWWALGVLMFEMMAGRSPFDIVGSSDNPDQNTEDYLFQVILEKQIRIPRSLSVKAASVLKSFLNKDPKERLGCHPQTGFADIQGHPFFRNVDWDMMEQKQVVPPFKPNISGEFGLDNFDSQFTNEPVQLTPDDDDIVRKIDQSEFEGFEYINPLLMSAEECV

Ret (V804L)(h) = target: T9, Ret (V804L)(h) (Homo sapiens, UniProt P07949, V804L); format: biochemical
T9 construct: purchased Millipore KinaseProfiler

Ron(h) = target: T10, Ron(h) (Homo sapiens, UniProt Q04912); format: biochemical
T10 construct: purchased Millipore KinaseProfiler
T10 sequence (Q04912 25-1400): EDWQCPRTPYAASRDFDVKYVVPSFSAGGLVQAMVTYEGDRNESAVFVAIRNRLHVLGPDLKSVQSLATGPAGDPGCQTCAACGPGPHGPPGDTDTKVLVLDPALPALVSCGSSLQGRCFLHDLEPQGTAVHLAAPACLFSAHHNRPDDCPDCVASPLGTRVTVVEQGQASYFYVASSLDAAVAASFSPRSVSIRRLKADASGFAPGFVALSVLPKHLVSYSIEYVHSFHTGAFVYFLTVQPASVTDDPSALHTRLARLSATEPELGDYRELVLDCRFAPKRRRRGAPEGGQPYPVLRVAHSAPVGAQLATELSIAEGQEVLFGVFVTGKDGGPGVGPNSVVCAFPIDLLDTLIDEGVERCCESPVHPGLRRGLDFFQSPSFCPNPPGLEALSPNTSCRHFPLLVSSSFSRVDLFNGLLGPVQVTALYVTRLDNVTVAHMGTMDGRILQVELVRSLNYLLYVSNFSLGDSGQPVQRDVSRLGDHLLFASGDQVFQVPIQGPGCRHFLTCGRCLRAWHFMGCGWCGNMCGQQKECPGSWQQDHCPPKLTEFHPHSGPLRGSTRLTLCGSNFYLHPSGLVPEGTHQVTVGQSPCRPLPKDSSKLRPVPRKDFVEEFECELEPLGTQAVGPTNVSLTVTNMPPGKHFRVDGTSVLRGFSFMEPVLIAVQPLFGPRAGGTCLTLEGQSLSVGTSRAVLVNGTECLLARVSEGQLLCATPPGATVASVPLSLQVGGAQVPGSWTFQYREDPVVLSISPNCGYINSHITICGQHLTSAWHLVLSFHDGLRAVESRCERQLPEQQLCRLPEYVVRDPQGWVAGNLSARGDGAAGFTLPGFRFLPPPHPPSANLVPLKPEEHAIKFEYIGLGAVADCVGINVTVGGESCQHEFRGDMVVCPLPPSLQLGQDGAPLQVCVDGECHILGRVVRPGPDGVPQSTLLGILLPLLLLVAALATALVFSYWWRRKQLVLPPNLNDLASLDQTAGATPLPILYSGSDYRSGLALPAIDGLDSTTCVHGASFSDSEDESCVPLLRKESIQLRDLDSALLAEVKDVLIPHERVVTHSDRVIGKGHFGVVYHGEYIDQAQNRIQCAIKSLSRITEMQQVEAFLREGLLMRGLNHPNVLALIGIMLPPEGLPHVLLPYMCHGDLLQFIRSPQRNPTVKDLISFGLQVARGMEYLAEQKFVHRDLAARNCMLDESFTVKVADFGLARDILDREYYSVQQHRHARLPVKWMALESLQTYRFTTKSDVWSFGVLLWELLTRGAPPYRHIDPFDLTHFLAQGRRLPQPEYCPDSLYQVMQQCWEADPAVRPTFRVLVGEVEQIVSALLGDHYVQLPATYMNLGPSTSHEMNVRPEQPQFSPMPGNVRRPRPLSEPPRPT

Rsk1(h) = target: T11, Rsk1(h) (Homo sapiens, UniProt Q15418); format: biochemical
T11 construct: purchased Millipore KinaseProfiler
T11 sequence (Q15418 whole entry): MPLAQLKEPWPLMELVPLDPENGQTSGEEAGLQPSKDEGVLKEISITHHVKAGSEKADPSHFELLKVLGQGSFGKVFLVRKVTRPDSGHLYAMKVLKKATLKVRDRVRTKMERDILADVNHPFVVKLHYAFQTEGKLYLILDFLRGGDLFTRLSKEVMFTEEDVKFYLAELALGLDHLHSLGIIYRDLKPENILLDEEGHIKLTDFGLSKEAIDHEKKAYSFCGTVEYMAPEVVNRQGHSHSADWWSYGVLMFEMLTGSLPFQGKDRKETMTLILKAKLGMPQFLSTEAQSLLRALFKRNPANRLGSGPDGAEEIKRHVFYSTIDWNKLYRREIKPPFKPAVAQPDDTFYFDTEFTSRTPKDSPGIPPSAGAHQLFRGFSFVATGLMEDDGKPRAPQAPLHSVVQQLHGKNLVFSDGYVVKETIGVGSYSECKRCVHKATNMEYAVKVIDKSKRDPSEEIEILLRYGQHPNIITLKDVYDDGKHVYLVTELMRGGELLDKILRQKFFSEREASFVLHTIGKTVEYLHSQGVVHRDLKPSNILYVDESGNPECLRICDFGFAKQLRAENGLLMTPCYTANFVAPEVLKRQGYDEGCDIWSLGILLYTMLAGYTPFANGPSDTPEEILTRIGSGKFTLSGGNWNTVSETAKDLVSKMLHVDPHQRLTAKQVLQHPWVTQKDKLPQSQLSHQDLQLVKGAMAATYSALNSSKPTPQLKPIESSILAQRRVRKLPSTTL

Rsk3(h) = target: T12, Rsk3(h) (Homo sapiens, UniProt Q15349); format: biochemical
T12 construct: purchased Millipore KinaseProfiler

Cn1ncc(Cl)c1-c1cc(C(=O)N[C@H](CN)Cc2cccc(F)c2)sc1Cl [GSK2110183]
inhibition at 0.5 µM (ACK1(h)): 1% | inhibition at 10 µM (ACK1(h)): 8% | inhibition at 0.5 µM (CDK2/cyclinA(h)): -10% | inhibition at 10 µM (CDK2/cyclinA(h)): 1% | inhibition at 0.5 µM (CHK1(h)): 13% | inhibition at 10 µM (CHK1(h)): 34% | inhibition at 0.5 µM (CHK2(I157T)(h)): -4% | inhibition at 10 µM (CHK2(I157T)(h)): 0% | inhibition at 0.5 µM (DAPK1(h)): 1% | inhibition at 10 µM (DAPK1(h)): 28% | inhibition at 0.5 µM (EphB2(h)): -8% | inhibition at 10 µM (EphB2(h)): 4% | inhibition at 0.5 µM (Fgr(h)): 3% | inhibition at 10 µM (Fgr(h)): 45% | % Inhibition (MLCK(h); 0.5 µM): 4% | % Inhibition (MLCK(h); 10 µM): 60% | inhibition at 0.5 µM (PKCι(h)): 1% | inhibition at 10 µM (PKCι(h)): 50% | inhibition at 0.5 µM (Ret (V804L)(h)): -5% | inhibition at 10 µM (Ret (V804L)(h)): 16% | inhibition at 0.5 µM (Ron(h)): 12% | inhibition at 10 µM (Ron(h)): 30% | inhibition at 0.5 µM (Rsk1(h)): 49% | inhibition at 10 µM (Rsk1(h)): 89% | inhibition at 0.5 µM (Rsk3(h)): 35% | inhibition at 10 µM (Rsk3(h)): 89%

Cn1ncc(Cl)c1-c1cc(C(=O)N[C@H](CN)Cc2ccc(F)c(F)c2)oc1Cl [GSK2141795]
inhibition at 0.5 µM (ACK1(h); 0.5 µM, read-out: % Inhibition): -2% | inhibition at 10 µM (ACK1(h); 10 µM, read-out: % Inhibition): 0% | inhibition at 0.5 µM (CDK2/cyclinA(h); 0.5 µM, read-out: % Inhibition): 1% | inhibition at 10 µM (CDK2/cyclinA(h); 10 µM, read-out: % Inhibition): 20% | inhibition at 0.5 µM (CHK1(h); 0.5 µM, read-out: % Inhibition): -9% | inhibition at 10 µM (CHK1(h); 10 µM, read-out: % Inhibition): 21% | inhibition at 0.5 µM (CHK2(I157T)(h); 0.5 µM, read-out: % Inhibition): 55% | inhibition at 10 µM (CHK2(I157T)(h); 10 µM, read-out: % Inhibition): 88% | inhibition at 0.5 µM (DAPK1(h); 0.5 µM, read-out: % Inhibition): 1% | inhibition at 10 µM (DAPK1(h); 10 µM, read-out: % Inhibition): 41% | inhibition at 0.5 µM (EphB2(h); 0.5 µM, read-out: % Inhibition): -8% | inhibition at 10 µM (EphB2(h); 10 µM, read-out: % Inhibition): 0% | inhibition at 0.5 µM (Fgr(h); 0.5 µM, read-out: % Inhibition): 2% | inhibition at 10 µM (Fgr(h); 10 µM, read-out: % Inhibition): 68% | % Inhibition (MLCK(h); 0.5 µM): 5% | % Inhibition (MLCK(h); 10 µM): 58% | inhibition at 0.5 µM (PKCι(h); 0.5 µM, read-out: % Inhibition): 0% | inhibition at 10 µM (PKCι(h); 10 µM, read-out: % Inhibition): 43% | inhibition at 0.5 µM (Ret (V804L)(h); 0.5 µM, read-out: % Inhibition): 4% | inhibition at 10 µM (Ret (V804L)(h); 10 µM, read-out: % Inhibition): 21% | inhibition at 0.5 µM (Ron(h); 0.5 µM, read-out: % Inhibition): 5% | inhibition at 10 µM (Ron(h); 10 µM, read-out: % Inhibition): 73% | inhibition at 0.5 µM (Rsk1(h); 0.5 µM, read-out: % Inhibition): 44% | inhibition at 10 µM (Rsk1(h); 10 µM, read-out: % Inhibition): 91% | inhibition at 0.5 µM (Rsk3(h); 0.5 µM, read-out: % Inhibition): 51% | inhibition at 10 µM (Rsk3(h); 10 µM, read-out: % Inhibition): 94%
